# Assay results as given in patent publication US11571485B2, “Peptides and antibodies for detecting changes in alzheimer's disease brain and methods of use thereof” (Sanford Burnham Prebys Medical Discovery Institute, priority 2016, dated 2023).
# Entries after “also recorded” stand apart in the source; their conditions may differ. Where no end group is shown, it is not given here.
# How the values were obtained:
# [1] = test system: human astrocytoma U251 cells; assay: AgNP binding to U251 cells; type: cell-based
# Procedure: FIG. 7 is a graphical representation showing quantity of DAG-coated silver nanoparticles (DAG-AgNPs) binding to human astrocytoma U251 cells. Cultured U251 cells were incubated with DAG-AgNPs alone, in the presence of free non-labeled control peptide, or an excess of free, non-labeled DAG (both at 200 μM), for 1 hour at 37° C. Nanoparticle binding was quantified from fluorescence micrographs using ImageJ™ software. Scale bar, 20 μm.
# (§1) Cell binding experiments on U251 cells and hiPSCs were with done using peptide conjugated AgNP. U251 cells were cultured in a 96-well plate. The cells were blocked with 200 μl of 10% FCS in HBSS (Hanks' Balanced Salt Solution from Gibco) for 30 min at 37° C. Following that, DAG-AgNPs (0.5 nM concentration diluted in HBSS) alone or in the presence of free non-labeled peptide (200 μM) were incubated on the cells for 1 hour at 37° C. After washing the unbound AgNP with HBSS three times, the plates were imaged with fluorescent microscopy by looking at intrinsic emission from the FAM tag on the peptide. hiPSCs were cultured in 48 well plate and similar protocol as described above was followed, with the exception that AgNP concentration for incubation was kept at 0.15 nM. Nanoparticle binding was quantified from fluorescence micrographs using ImageJ™ software.
# human AD brain sections = assay: Ex vivo overlay binding to human AD brain sections; conditions: overlay
# Procedure: PFA fixed sections were incubated in PBS for 10 minutes, followed by PBS-Triton-x-100 (0.2%) for 10 minutes. Sections were rinsed with PBST, mounted in a slide holder, and subsequently washed with PBS-T during 12 minutes. Slides were blocked with blocking buffer for 60 minutes at room temperature. Then, peptides were incubated at a concentration of 10 μg/mL dissolved in concentrated blocking buffer, for three hours at room temperature. Sections were then washed with three 4-minute washes of PBS-T, and subsequently fixed with PFA for 10 minutes, followed by three 3-minute washes with PBS-T. Sections were then incubated with primary antibody at 1/200 in diluted blocking buffer overnight at 4° C. Later, sections were washed with three 4-minute washes with PBS-T. Slides were then incubated with secondary antibody at 1/200 dilution in diluted blocking buffer for 30 minutes at room temperature, followed by three 4-minute washes of PBS-T. Sections were then counterstained with DAPI for 5 minutes, washed with PBS-T and mounted.
# Postmortem human brain samples were obtained from the New York Brain Bank at Columbia University, New York. The patient was a person with a diagnosis of AD neuropathologic changes ([A3, B3, C3]). The normal brain tissue was obtained from BioChain Institute Inc. (Newark, Calif.). The donor was a person without any neurologic diagnosis on detailed neuropathologic evaluation. The Parkinson's disease brain tissue was obtained from UCSD Pathology bank. Frozen brain tissue was sectioned for immunohistochemistry and ex vivo overlay binding with FAM-peptides.
# [2] = test system: human iPS cell-derived endothelial cells (ECs) from an AD patient; assay: AgNP binding to hiPSC-derived brain endothelial cells; type: cell-based; conditions: for Binding to AD patient iPS cell-derived endothelial cells: AD patient vs normal donor cells
# Text: Human iPS cell-derived from an AD patient and from a normal individual were differentiated into endothelial cells and the cultured cells were used in an overlay assay with DAG-coated and control AgNP.
# The details of human induced pluripotent stem cells (hiPSCs) derived from Alzheimer disease patients with APP duplication, and non-demented control individuals, are described previously (Israel et al., Nature 482, 216-220 (2012)). These hiPSCs were extensively characterized and have been established as an excellent human model for AD. An additional AD hiPSC line generated from dermal fibroblasts from an individual harboring a Presenilinl (PSEN1) mutation (Coriell Institute, Cat #AG06840) was used to further validate the results from the APP lines. hiPSCs were routinely maintained on mouse embryonic fibroblast as described before (Lin et al., Nat Methods 6, 805-808 (2009); Talantova et al., Proc Natl Acad Sci USA 110, E2518-2527 (2013)). Brain microvascular endothelial cells differentiation of hiPSCs was performed using a previously described protocol (Lippmann et al., Nature biotechnology 30, 783-791 (2012), with minor modifications. Briefly, feeder-free cultures of hiPSCs were allowed to spontaneously differentiate in the absence of bFGF for 5-7 days, and then transferred to Endothelial cell (EC) medium composed of human Endothelial Serum-Free Medium™ (Invitrogen) supplemented with 20 ng/ml bFGF and 1% platelet-poor plasma-derived bovine serum (PDS; Biomedical Technologies). After 1-2 days the cells were dissociated with dispase (2 mg/ml) and were plated on 12 well plates coated with a mixture of collagen IV (400 μg/ml) and fibronectin (100 μg/ml). Cells were then cultured in EC medium until they reached confluence, after which they were split and expanded to near 100% purity. BBB-type EC identity was confirmed by flow cytometry or double immunoreactivity to the hallmark efflux transporter p-glycoprotein and other EC markers (CD31, GLUT-1, PECAM, Occludin, and Claudin-5). Furthermore, the capability of these cells to make functional tight junctions and polarized efflux activity was validated using a dual chamber efflux transport assay as described before.
# as §1
# [3] = test system: AD and WT mouse brain sections; assay: Overlay binding of peptide-coated silver nanoparticles on frozen mouse brain sections
# Text: CASPRLSKC recognizes the AD hippocampus in tissue section overlay assay. Silver nanoparticles were coated with the CASPRLSKC peptide or a control peptide and used to overlay brain sections from AD and normal mice. Silver staining was used to visualize binding and nuclei were stained with nuclear fast red. The CASPRLSKC nanoparticles bind to elongated structures that may represent nerve fibers. These structures are not present in the normal brain.
# Binding of DAG conjugated silver nanoparticles on frozen brain sections from AD or WT animals in overlay binding assay was also tested. […] This binding is restricted to the hippocampal region CA1 and the dentate gyms. Frozen coronal sections from AD and WT mice were used for overlay experiments with DAG-AgNPs. Silver staining was used to visualize binding and nuclei were stained with nuclear fast red.
# Silver nanoparticles (AgNPs) with PEG coating and peptide functionality were prepared as reported previously with some modifications (Braun et al., Nature materials 13, 904-911 (2014)). AgNPs of ˜35 nm diameter were synthesized by citrate acid reduction of silver nitrate in solution. First, AgNO3 (450 mg) dissolved in 2.5 L water was stirred and heated to a boil and 50 mL water containing trisodium citrate dihydrate (500 mg, Sigma) was added. After 30 min the solution was cooled to room temperature. The resulting optical density at 405 nm was ˜10. […]
substance,measurement,setting,value
"DAG-AgNPs: DAG-coated silver nanoparticles with PEG coating, FAM-cys-x-DAG-NH2 attached (CDAGRKQKC-NH2; not fully specified (N-terminus); also: attached via extra Cys thiol to maleimide-PEG on silver nanoparticles)",Binding to U251 cells,[1]; 1 hour at 37° C.,"bound robustly to these cells, much more so than non-targeted nanoparticles"
same,Inhibition of binding to U251 cells by free DAG,"[1]; excess free non-labeled DAG, 200 μM","inhibited by co-incubation with an excess of free, non-labeled DAG"
same,Binding to human AD brain sections,human AD brain sections,bind to sections from an AD patient with sporadic AD
same,Inhibition of AgNP binding by free DAG peptide,[2]; 200 μM free non-labeled DAG,inhibited by the presence of free DAG peptide
same,Binding to AD patient iPS cell-derived endothelial cells,[2],"bind to human iPS cell-derived endothelial cells (ECs) from an AD patient, but not to ECs derived from a normal donor; also recorded: binding to human IPS cell-derived endothelial cells (ECs) from an AD patient, but not to ECs derived from a normal donor"
same,Binding to AD patient iPS cell-derived endothelial cells,[2]; listed as DAG-AgNP,high binding
same,Binding to AD brain sections compared to age-matched wild-type brain sections,"[3]; frozen brain sections, overlay binding assay",over 10 fold
same,Binding to hippocampal CA1 region in AD brains versus WT brains,"[3]; frozen coronal sections, hippocampal CA1 region",14 fold
